{"source": "paper PMC10410761", "about": "(Proceedings of the National Academy of Sciences of the …, 2023)", "key": {"[1]": {"system": "NaV1.7", "assay": "Whole-cell voltage clamp, sodium currents in rat DRG neurons", "format": "cell-based", "settings": "Pitstop2 20 µM, 30 min before recording, rat DRG neurons"}, "[2]": {"biological_target": "NaV1.7 (Rattus norvegicus, UniProt O08562)", "sequence (O08562 whole entry)": "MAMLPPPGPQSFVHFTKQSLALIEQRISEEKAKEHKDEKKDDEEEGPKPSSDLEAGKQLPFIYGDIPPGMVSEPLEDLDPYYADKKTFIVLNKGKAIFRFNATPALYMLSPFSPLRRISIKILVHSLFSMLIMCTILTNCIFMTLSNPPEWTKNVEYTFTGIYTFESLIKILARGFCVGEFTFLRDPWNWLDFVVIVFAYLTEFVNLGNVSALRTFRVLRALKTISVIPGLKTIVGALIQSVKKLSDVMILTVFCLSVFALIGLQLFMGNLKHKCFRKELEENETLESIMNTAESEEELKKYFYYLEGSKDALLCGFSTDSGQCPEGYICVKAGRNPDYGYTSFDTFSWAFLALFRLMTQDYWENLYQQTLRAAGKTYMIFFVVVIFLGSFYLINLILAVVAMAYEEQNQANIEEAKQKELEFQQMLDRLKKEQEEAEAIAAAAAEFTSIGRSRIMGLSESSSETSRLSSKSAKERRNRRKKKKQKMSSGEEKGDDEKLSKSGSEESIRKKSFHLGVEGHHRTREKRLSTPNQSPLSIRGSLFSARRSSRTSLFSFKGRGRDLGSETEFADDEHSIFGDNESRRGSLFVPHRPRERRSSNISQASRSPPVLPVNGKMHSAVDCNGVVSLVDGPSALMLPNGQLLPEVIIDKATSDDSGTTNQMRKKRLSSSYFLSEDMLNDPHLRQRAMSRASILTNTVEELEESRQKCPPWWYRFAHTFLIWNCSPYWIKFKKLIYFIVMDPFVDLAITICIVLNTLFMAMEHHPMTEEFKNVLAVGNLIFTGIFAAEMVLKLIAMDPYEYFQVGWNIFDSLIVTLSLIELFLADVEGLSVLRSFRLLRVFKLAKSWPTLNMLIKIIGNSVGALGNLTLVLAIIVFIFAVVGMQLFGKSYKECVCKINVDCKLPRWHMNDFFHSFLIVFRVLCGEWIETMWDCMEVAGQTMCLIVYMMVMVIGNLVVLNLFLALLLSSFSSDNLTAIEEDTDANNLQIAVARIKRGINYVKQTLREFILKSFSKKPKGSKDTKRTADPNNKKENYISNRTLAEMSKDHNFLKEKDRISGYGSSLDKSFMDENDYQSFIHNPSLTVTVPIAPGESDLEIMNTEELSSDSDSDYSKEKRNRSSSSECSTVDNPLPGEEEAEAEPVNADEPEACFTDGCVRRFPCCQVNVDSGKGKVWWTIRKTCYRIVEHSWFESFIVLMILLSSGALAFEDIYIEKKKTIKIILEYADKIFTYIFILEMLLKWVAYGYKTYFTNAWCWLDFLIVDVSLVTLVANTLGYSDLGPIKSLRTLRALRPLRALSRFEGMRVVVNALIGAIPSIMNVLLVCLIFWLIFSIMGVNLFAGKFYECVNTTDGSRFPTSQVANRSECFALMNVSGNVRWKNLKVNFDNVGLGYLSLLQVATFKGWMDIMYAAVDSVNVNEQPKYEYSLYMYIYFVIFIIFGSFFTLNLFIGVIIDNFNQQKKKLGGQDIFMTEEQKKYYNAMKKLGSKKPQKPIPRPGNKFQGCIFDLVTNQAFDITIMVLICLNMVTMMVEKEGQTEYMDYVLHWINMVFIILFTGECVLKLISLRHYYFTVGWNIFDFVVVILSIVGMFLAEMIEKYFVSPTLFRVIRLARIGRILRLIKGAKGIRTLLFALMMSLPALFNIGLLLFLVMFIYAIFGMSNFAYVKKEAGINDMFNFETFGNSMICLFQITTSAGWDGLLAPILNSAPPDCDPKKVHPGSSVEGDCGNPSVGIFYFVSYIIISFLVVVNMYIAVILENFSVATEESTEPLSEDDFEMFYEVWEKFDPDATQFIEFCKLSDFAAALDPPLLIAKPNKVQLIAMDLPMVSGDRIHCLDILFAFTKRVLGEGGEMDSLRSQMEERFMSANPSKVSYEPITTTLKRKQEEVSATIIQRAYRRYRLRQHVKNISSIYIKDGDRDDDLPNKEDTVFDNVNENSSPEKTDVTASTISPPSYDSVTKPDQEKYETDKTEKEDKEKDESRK", "assay": "Whole-cell voltage clamp, sodium currents in rat DRG neurons", "format": "cell-based", "settings": "Pitstop2 20 µM, vs AAV-SCR control"}}}
{"smiles": "O=C1NC(=NS(=O)(=O)c2cccc3ccccc23)S/C1=C\\c1ccc(Br)cc1", "note": "[Pitstop2]", "values": [{"measurement": "Decrease of sodium currents imposed by Myr-TAT-NaV1.7-CRS", "setting": "[1]", "result": "rescued"}, {"measurement": "Inhibition of NaV1.7 current in AAV-NaV1.7-CRS transfected DRG neurons", "setting": "[2]", "result": "rescued"}]}
